Results from publication PMC13366236 (Acta Pharmaceutica Sinica. B, 2025).
Marks after values point to notes of the source that are not given here.

Tests used:
[1] = target: mTOR (Homo sapiens, UniProt P42345); test: mTOR kinase inhibition, Lance Ultra assay; format: biochemical; settings: for IC50: mTOR, IC50, mean ± SD of triplicate measurements
[2] = test system: MDA-MB-231 cells; test: Cell viability CCK-8 assay; format: cell-based, human; settings: Homo sapiens, MDA-MB-231, 48 h, read-out: Antiproliferative IC50 ± SD
[3] = test system: MCF-7 cells; test: Cell viability CCK-8 assay; format: cell-based; settings: Homo sapiens, MCF7, 48 h, read-out: Antiproliferative IC50 ± SD
[4] = test system: HCT-116 cells; test: Cell viability CCK-8 assay; format: cell-based; settings: Homo sapiens, HCT-116, 48 h, read-out: Antiproliferative IC50 ± SD
[5] = test system: MDA-MB-436 cells; test: Cell viability CCK-8 assay; format: cell-based; settings: Homo sapiens, MDA-MB-436, 48 h, read-out: Antiproliferative IC50 ± SD
[6] = test system: MDA-MB-231 xenograft; test: MDA-MB-231 xenograft tumor model; format: in vivo, female BALB/c nude mice; settings: i.v., Day 15; for Tumor size: mean ± SEM
[7] = test system: MDA-MB-231 cells; test: Colony formation assay; format: cell-based, human; settings: MDA-MB-231, 0.05, 0.1, 0.5 μmol/L
[8] = test system: MDA-MB-231 cells; test: Apoptosis, Annexin V-AF647/7AAD flow cytometry; format: cell-based, human; settings: MDA-MB-231, 2 μmol/L, 24 h
[9] = test system: MDA-MB-231 cells; test: Wound healing; format: cell-based, human; settings: MDA-MB-231, 0.25, 0.5, 1.0 μmol/L, concentration-dependent

Structure (SMILES): NCCC(=O)Nc1ccccc1/N=c1\cc(-c2ccc3nc(N)oc3c2)oc2ccc(O)cc12 [Compound 12n, (E)-3-amino-N-(2-((2-(2-aminobenzo[d]oxazol-6-yl)-6-hydroxy-4H-chromen-4-ylidene)amino)phenyl)propanamide]
- IC50 [1]: 26.3 ± 0.2 nM
- fold more potent than 12a (mTOR IC50) ([1]; vs 12a): 1.72 fold
- IC50 [2]: 1770 ± 473 nM
- IC50 [3]: 547 ± 679 nM
- IC50 [4]: 1570 ± 132 nM

Structure (SMILES): NCCC(=O)Nc1ccccc1/N=c1\cc(-c2ccc3nc(N)oc3c2)oc2cc(O)ccc12 [Compound 12m, (E)-3-amino-N-(2-((2-(2-aminobenzo[d]oxazol-6-yl)-7-hydroxy-4H-chromen-4-ylidene)amino)phenyl)propanamide]
- IC50 [5]: > 10000 nM
- IC50 [1]: 40.2 ± 1 nM
- IC50 [2]: > 10000 nM
- IC50 [3]: > 10000 nM
- IC50 [4]: > 10000 nM

Structure (SMILES): Nc1nc2ccc(-c3c/c(=N\c4ccccc4NC(=O)C4CCNC4)c4ccccc4o3)cc2o1 (centres unmarked) [Compound 12i, (E)-N-(2-((2-(2-aminobenzo[d]oxazol-6-yl)-4H-chromen-4-ylidene)amino)phenyl)pyrrolidine-3-carboxamide]
- IC50 [1]: 165 ± 8.1 nM
- IC50 [2]: 285 ± 425 nM
- IC50 [3]: 1487 ± 2.8 nM
- IC50 [4]: 313200 ± 5.7 nM

Structure (SMILES): COc1cccc2c1C(=O)c1c(O)c3c(c(O)c1C2=O)C[C@@](O)(C(=O)CO)C[C@@H]3O[C@H]1C[C@H](N)[C@H](O)[C@H](C)O1 [Doxorubicin, reference compound]
- T/C ([6]; 2.5 mg/kg, Q7D × 2): 31.82%
- TGI ([6]; 2.5 mg/kg, Q7D × 2): 68.18 ^d %
- Tumor size ([6]; 2.5 mg/kg, Q7D × 2): 115.17 ± 32.95 mm^3
- IC50 [2]: 75.6 nM

Structure (SMILES): CNCCC(=O)Nc1ccccc1/N=c1\cc(-c2ccc3nc(N)oc3c2)oc2ccccc12 [Compound 12c, (E)-N-(2-((2-(2-aminobenzo[d]oxazol-6-yl)-4H-chromen-4-ylidene)amino)phenyl)-3-(methylamino)propanamide]
- IC50 [5]: 566 ± 9.1 nM
- IC50 [1]: 473 ± 42.4 nM
- IC50 [2]: 104 ± 3.3 nM
- IC50 [3]: 1316 ± 6.4 nM
- IC50 [4]: 900.5 ± 5.5 nM

Structure (SMILES): Oc1cccc(-c2nc(N3CCOCC3)c3oc4ncccc4c3n2)c1 [PI-103, reference compound]
- IC50 [5]: > 10000 nM
- T/C ([6]; 20 mg/kg, Q3D × 6): 61.36%
- TGI ([6]; 20 mg/kg, Q3D × 6): 38.64 ^d %
- Tumor size ([6]; 20 mg/kg, Q3D × 6): 256.59 ± 40.06 mm^3
- IC50 [2]: > 10000 nM
- colony formation ability [7]: significantly inhibited
- IC50 [3]: 2790 ± 346 nM
- IC50 [4]: > 10000 nM
- percentage of total apoptotic cells [8]: 4.47%
- anti-migration effect [9]: significantly inhibit the migration

Structure (SMILES): NCCC(=O)Nc1ccccc1/N=c1\cc(-c2ccc3nc(N)oc3c2)oc2ccc(F)cc12 [Compound 12k, (E)-3-amino-N-(2-((2-(2-aminobenzo[d]oxazol-6-yl)-6-fluoro-4H-chromen-4-ylidene)amino)phenyl)propanamide]
- IC50 [5]: 112 ± 62.3 nM
- IC50 [1]: 166 ± 6.3 nM
- IC50 [2]: 125 ± 5.9 nM
- IC50 [3]: 211 ± 87.7 nM
- IC50 [4]: 307.9 ± 2.2 nM
